Measured values reported in US9079897B2, “Imidazo-pyridine derivatives as activin-like receptor kinase (ALK4 or ALK5) inhibitors” (NOVARTIS AG, priority 2008, dated 2015).
One block for each molecule: values may come before it.

What was measured:
[1] = molecular target: T1, human ALK5 (kinase domain, ALK5 T204D) (Homo sapiens, UniProt P36897, T204D); assay: ALK5 kinase activity, [33P] phosphate incorporation into casein; type: biochemical; settings: casein substrate
T1 construct: The kinase domain of human ALK5 (amino acids 200-503); made in house; host or cells: insect cells (baculovirus expression)
T1 sequence (P36897 200-503 T204D): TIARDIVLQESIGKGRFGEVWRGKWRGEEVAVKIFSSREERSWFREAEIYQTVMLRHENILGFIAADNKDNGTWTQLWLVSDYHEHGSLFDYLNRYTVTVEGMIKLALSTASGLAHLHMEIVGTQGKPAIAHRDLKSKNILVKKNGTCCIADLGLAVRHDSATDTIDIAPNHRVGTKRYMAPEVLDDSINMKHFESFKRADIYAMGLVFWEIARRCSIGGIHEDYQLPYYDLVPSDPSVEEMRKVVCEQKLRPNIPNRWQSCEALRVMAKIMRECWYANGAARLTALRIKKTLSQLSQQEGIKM
Protocol: The kinase activity of ALK5 is assessed by measuring radiolabelled phosphate [33P] incorporation in to the generic substrate, casein. The kinase domain of human ALK5 (amino acids 200-503) is fused to an N-terminal histidine tag. The kinase activity of ALK5 is rendered constitutive via point mutation at amino acid 204 (threonine to aspartate modification, ALK5 T204D) and the kinase construct is engineered to be expressed from a baculovirus expression construct in insect cells. The purified, recombinantly-expressed histidine-tagged ALK5 T204D protein is dissolved at 5.4 mg/ml in 50 mM Tris-HCl pH 8.0, 150 mM NaCl, 5 mM DTT. ALK5 T204D is dissolved to 2.5 μg/ml in assay buffer (Assay buffer: 20 mM Tris-HCl pH 7.4, 10 mM MgCl2, 2 mM MnCl2) on the day of use.
Test compounds and reference compounds are dissolved in assay buffer without DTT containing 5% (v/v) DMSO. Stock solutions of test and reference compounds are diluted in assay buffer with DTT (1.25 mM) containing 4.5% (v/v) DMSO. 10 μl of test or reference compound are added to the appropriate wells of 96 well U-bottomed plate. Total enzyme activity is determined by measuring ALK5 T204D activity in the absence of ALK5 kinase inhibitor reference compounds. Non-specific binding (NSB) is determined by measuring the activity of ALK5 T204D in the presence of ALK5 kinase inhibitor reference compounds. 10 μl of dephosphorylated casein stock solution (dephosphorylated casein is dissolved in ddH2O at 20 mg/ml) is added per well (200 μg/well final assay concentration). 20 μl of ALK5 T204D (2.5 μg/ml solution) is added per well (50 ng/well final assay concentration). The plates are left to incubate at room temperature for 10 minutes.
10 μl of ATP mix is added to the well to initiate the reaction (0.66 nM [^33P]ATP/1 μM unlabelled ATP/well final assay concentration). The ATP mix is prepared as follows, unlabelled ATP (3 mM) is dissolved in ddH2O and pH adjusted to 7.4. The stock concentration of [^33P]ATP is 10 μCi/μl. The appropriate volume of [^33P]ATP is added to unlabelled ATP solution such that the final assay concentration per well is 0.1 μCi. Following addition of the ATP mix, the plates are incubated at room temperature for 50 minutes. The kinase reaction is terminated by the addition of 50 μL Stop Buffer (20 mM Tris-HCl pH 7.4, 10 mM EDTA).
75 μl/well from the reaction plate is transferred to a Multiscreen-IP plate (MultiScreen-IP plates are prepared by added 50 μL of 70% (v/v) ethanol per well and incubated for 5 minutes at room temperature. The ethanol is removed by aspiration via a MultiScreen HTS Vaccum Manifold unit (Millipore, Cat no: MSVMHT500). The plates are washed twice by adding 200 μl/well ddH2O). The MultiScreen-IP plate is incubated at room temperature for 30 minutes to allowing binding of casein to the plate. The MultiScreen-IP plates are washed three times by adding 200 μl/well 100 mM phosphoric acid solution and the gasket is carefully removed from the back of the MultiScreen-IP plate and the plate dried in the oven for 30 minutes. The MultiScreen-IP plate is backsealed, 50 μL of MICROSCINT™20 is added, then the plates are topsealed and radiolabelled casein detected and quantified on a TOPCOUNT™ plate-reader using the ^33P scintillation protocol.

[2] = system: dimethylnitrosamine induced liver fibrosis; settings: rat, cited from earlier work
[3] = system: bleomycin-induced pulmonary fibrosis; settings: bleomycin-treated rats; cited from earlier work
[4] = given therapeutically, dimethylnitrosamine induced liver fibrosis

Molecule: OC1CCC(Nc2ccc3ncn(-c4ccnc(-c5ccoc5)c4)c3n2)CC1 (stereo not shown) [Example 1.1, 4-[3-(2-Furan-3-yl-pyridin-4-yl)-3H-imidazo[4,5-b]pyridin-5-ylamino]-cyclohexanol]
IC50 [1]: 13 nM

Molecule: c1ccc(-c2cc(-c3cn[nH]c3-c3ccccn3)ccn2)cc1 [GW6604]
side effects ([2]; 3 weeks treatment): no obvious side effects | inhibition of extracellular matrix deposition [2, 4]: 60% | prevention of death rate [2, 4]: 40%

B1: follistatin: an antagonist of activin signalling (protein, UniProt P19883 30-344, looked up)
Follistatin: GNCWLRQAKNGRCQVLYKTELSKEECCSTGRLSTSWTEEDVNDNTLFKWMIFNGGAPNCIPCKETCENVDCGPGKKCRMNKKNKPRCVCAPDCSNITWKGPVCGLDGKTYRNECALLKARCKEQPELEVQYQGRCKKTCRDVFCPGSSTCVVDQTNNAYCVTCNRICPEPASSEQYLCGNDGVTYSSACHLRKATCLLGRSIGLAYEGKCIKAKSCEDIQCTGGKKCLWDFKVGRGRCSLCDELCPDSKSDEPVCASDNATYASECAMKEAACSSGVLLEVKHSGSCNSISEDTEEEEEDEDQDYSFPISSILEW
lung fibrosis [3]: attenuated lung fibrosis | number of macrophages and neutrophils in bronchoalveolar lavage [3]: significantly reduced

The next lines start with the values.

IC50 [1]: 6 nM
Molecule: O[C@H]1CCC[C@@H](Nc2ccc3ncn(-c4ccnc(-c5ccoc5)c4)c3n2)C1 (racemic) [Example 1.5, (1SR, 3RS)-3-[3-(2-Furan-3-yl-pyridin-4-yl)-3H-imidazo[4,5-b]pyridin-5-ylamino]-cyclohexanol]

IC50 [1]: 318 nM
Molecule: O[C@H]1CCC[C@H](Nc2ccc3ncn(-c4ccnc(-c5ccc(F)cc5)c4)c3n2)C1 (racemic) [Example 1.9, (1SR, 3SR)-3-{3-[2-(4-Fluorophenyl)-pyridin-4-yl)-3H-imidazo[4,5-b]pyridin-5-ylamino}-cyclohexanol]

IC50 [1]: 56 nM
Molecule: O[C@H]1CCC[C@@H](Nc2ccc3ncn(-c4ccnc(-n5cccn5)c4)c3n2)C1 (racemic) [Example 1.17, (1SR,3RS)-3-[3-(2-Pyrazol-1-yl-pyridine-4-yl)-3H-imidazo[4,5-b]pyridin-5-ylamino]-cyclohexanol]

IC50 [1]: 38 nM
Molecule: Cc1ccn(-c2cc(-n3cnc4ccc(NC5CCCC(O)C5)nc43)ccn2)n1 (stereo not drawn) [Example 1.13, (1SR,3RS)-3-{3-[2-(3-Methyl-pyrazol-1-yl)pyridine-4-yl]-3H-imidzo[4,5-b]pyridin-5-ylamino}-cyclohexanol]
